The subject of data set [1] is HCT-116. The data set is described as follows: Antiproliferative activity against human HCT-116 cells assessed as reduction in cell viability incubated for 48 hrs by MTT assay. The conditions noted are these: HCT-116, 48 h. Type of data set: functional, cell-based. (In general: Tetrazolium assays rely on reduction of a dye to a coloured formazan, in cell work by metabolically active cells.)

The subject of data set [2] is SW480. The data set is described as follows: Antiproliferative activity against human SW480 cells assessed as reduction in cell viability incubated for 48 hrs by MTT assay. Type of data set: functional, cell-based. The conditions noted are these: SW480, 48 h.
The subject of data set [3] is SW480. The data set is described as follows: Potency index, ratio of 5-FU IC50 to test compound IC50 for antiproliferative activity against human SW480 cells. The format is functional.
In data set [4] the test system is SW480. The data set is described as follows: Induction of apoptosis in human SW480 cells assessed as viable cells at 2 uM incubated for 48 hrs by Annexin V-FITC/PI staining based flow cytometry (reference value: 90.56%). The format is functional. The note with it: read-out: Activity.
Data set [5] has as its system SW480. The data set is described as follows: Induction of apoptosis in human SW480 cells assessed as early apoptotic cells at 4 uM incubated for 48 hrs by Annexin V-FITC/PI staining based flow cytometry (reference value: 1.87%). The format is functional. Background: In flow cytometry, cells or beads pass a laser one at a time.
Data set [6] relates to SW480. The data set is described as follows: Induction of apoptosis in human SW480 cells assessed as late apoptotic cells at 8 uM incubated for 48 hrs by Annexin V-FITC/PI staining based flow cytometry (reference value: 4.67%). The format is functional.
Data set [7] relates to SW480. The data set is described as follows: Induction of apoptosis in human SW480 cells assessed as viable cells at 16 uM incubated for 48 hrs by Annexin V-FITC/PI staining based flow cytometry (reference value: 90.56%). The note with it: read-out: Activity. Type of data set: functional.
Data set [8] relates to SW480. The data set is described as follows: Induction of apoptosis in human SW480 cells assessed as viable cells at 32 uM incubated for 48 hrs by Annexin V-FITC/PI staining based flow cytometry (reference value: 90.56%). Type of data set: functional. The conditions noted are these: read-out: Activity.
Data set [9] has as its system SW480. The data set is described as follows: Induction of apoptosis in human SW480 cells assessed as necrotic cells at 32 uM incubated for 48 hrs by Annexin V-FITC/PI staining based flow cytometry (reference value: 2.9%). The format is functional.
The subject of data set [10] is HCT-116. The data set is described as follows: Induction of apoptosis in human HCT-116 cells at 32 uM incubated for 48 hrs by Annexin V-FITC/PI staining based flow cytometry (reference value: 12%). Type of data set: functional.
Data set [11] relates to SW480. The data set is described as follows: Induction of apoptosis in human SW480 cells assessed as increase in Bax protein expression at 2 to 16 uM incubated for 48 hrs by western blot analysis. The conditions noted are these: dose 2-16 µM. Type of data set: functional, cell-based.
In data set [12] the test system is SW480. The data set is described as follows: Induction of apoptosis in human SW480 cells assessed as increase in p53 protein expression at 2 to 16 uM incubated for 48 hrs by western blot analysis. Type of data set: functional, cell-based. The conditions noted are these: dose 2-16 µM. (A western blot detects proteins with antibodies after separation by electrophoresis.)

The test system of data set [13] is SW480. The data set is described as follows: Induction of mitochondrial membrane potential loss in human SW480 cells assessed as cells with high MMP emitting red fluorescence at 4 uM incubated for 24 hrs by JC-1 staining based flow cytometry (reference value: 64.2%). Type of data set: functional.
For data set [14], the system named is SW480. The data set is described as follows: Induction of mitochondrial membrane potential loss in human SW480 cells assessed as increase in cells with low MMP emitting green fluorescence at 2 to 8 uM incubated for 24 hrs by JC-1 staining based fluorescence microscopy. The note with it: dose 2-8 µM. Type of data set: functional, cell-based.
In data set [15] the test system is HCT-116. The data set is described as follows: Inhibition of colony formation in human HCT-116 cells at 2 to 8 uM incubated for 48 hrs followed by culture medium replenishment for every 72 hrs and measured after 14 days by crystal violet staining based analysis. The format is functional, cell-based. The note with it: dose 2-8 µM, time 14.0 day.
A short description of data set [16]: Acute toxicity in BALB/c mouse assessed as animal survival at 100 mg/kg, ip administered per 4 hrs for 4 times and measured everyday for 14 days (Rb =100%). The format is organism-based. The note with it: in vivo, time 14 day.
Data set [17] in a line: Acute toxicity in ip dosed BALB/c mouse administered per 4 hrs for 4 times and measured everyday for 14 days. The note with it: in vivo, time 14 day. Type of data set: organism-based.
The subject of data set [18] is SW480. The data set is described as follows: Antitumor activity against human SW480 cells xenografted in ip dosed BALB/c mouse assessed as reduction in tumor volume administered every 2 days for 12 days. The format is functional, organism-based. The conditions noted are these: dose 25-50 mg/kg, time 12.0 day.
Data set [19] relates to SW480. The data set is described as follows: Antitumor activity against human SW480 cells xenografted in ip dosed BALB/c mouse assessed as reduction in tumor weight administered every 2 days for 12 days. The note with it: dose 25-50 mg/kg, time 12.0 day. The format is functional, organism-based.
Data set [20] in a line: Toxicity in BALB/c mouse xenografted with human SW480 cells assessed as decrease in body weight at 25 to 50 mg/kg, ip administered every 2 days for 12 days. The format is organism-based. The note with it: in vivo, 288 h, dose 25-50 mg/kg, time 12 day.
Data set [21] relates to SW480. The data set is described as follows: Antitumor activity against human SW480 cells xenografted in BALB/c mouse assessed as reduction in tumor necrosis at 25 to 50 mg/kg, ip administered every 2 days for 12 days by hematoxyin-eosin staining based analysis. The format is functional, organism-based. The conditions noted are these: dose 25-50 mg/kg, time 12.0 day.

pIC50: −log10 of the molar value. Activity calls are given as the source filed them. The calls are words filed in the database; no cut-off is given here.

In general, pIC50 refers to the negative decadic logarithm of the IC50, by convention in mol/L. Broadly, the LD50 is the dose expected to kill half of the subjects tested.

In the case of `CCCCCCCCCC(CCO)n1cnc2c(Cl)ncnc21` (racemic), the pIC50 with HCT-116 [1] is 6.05; with SW480 [2] it was 5.94. In the data set on SW480 [3], the “Ratio IC50” value is given as 10. For the same compound, the viability at 2 µM with SW480 [4] came out at 73.9%. Further, the Activity with SW480 [5] was 11.67%; in the data set on SW480 [6], 15.47%; in the data set on SW480 [9], 3.89%; with HCT-116 [10], 66%; in the data set on SW480 [13] it was 33.67%; in the data set on SW480 [18], “Dose-Dependent Effect”. Moreover, the Activity result in the data set on SW480 [19] is “Dose-Dependent Effect”; in data set [20], “Non-Toxic”. In addition, the viability at 16 µM in the data set on SW480 [7] is 44%. Besides, the viability at 32 µM in the data set on SW480 [8] turned out to be 26.8%. Besides, the outcome in the data set on SW480 [11], in the data set with SW480 [12], in the data set on SW480 [14] and with SW480 [21] was Active. The inhibition entry in the data set on HCT-116 [15] was “Active”. The survival at 336 h in data set [16] was determined as 100%. This compound gave an LD50 at 336 h in data set [17] of 220 mg/kg.

Source of the values: ChEMBL document CHEMBL4811228, “Design, Synthesis, and Activity Evaluation of Novel Acyclic Nucleosides as Potential Anticancer Agents In Vitro and In Vivo” (J Med Chem, 2021).
